Assays:
[1] = Spectral parameters for absorption and fluorescence of ADH substrates and products; format: physicochemical; details: for total decrease of molar absorptivity (aldehyde/NADH system): 340 nm, 40 mM Mes buffer, pH 7.1, with NADH
Procedure: The spectral parameters for 4-methoxy-1-naphthaldehyde (IA), 6-methoxy-2-naphthaldehyde (IIA) and their reduction products (IB and IIB, respectively) are shown in Table I.
Ultraviolet absorption spectra were measured on a Cary 219 or Hewlett-Packard 8451 spectrophotometer. Fluorescence measurements were made in a Perkin Elmer MPF3 spectrofluorometer, equipped with an Osram XBO 150 Watt Xenon lamp, an R446 photomultiplier, and thermostatted cell holder through which water was passed from a Poly-Temp circulator with the following spectrometer settings: excitation wavelength 316 nm. bandwidth 8 nm for both substrate IA and IIA; emission wavelength. 370 nm for substrate IA and 360 nm for substrate IIA, emission bandwidth 24 nm. Changes in fluorescence as a result of oxidation or reduction of the substrate was then measured in the ratio mode. Generally, for fluorometric reactions (see part 8 below). a sensitivity setting of 3 was used with compensation of fluorescence background by the zero suppression control of the instrument.
(§1) Aldehyde reduction was monitored by following the decrease of absorption at 340 nm in 40 mM Mes buffer, pH 7.1. in the presence of saturating NADH, 50 μM for Class I and 100 μM for Class II. […] Initial reaction rates were measured and kinetic parameters determined by conventional procedures as described by Segel, 1975, Enzyme Kinetics, pp. 591-597, Wiley, N.Y.

Horse ADH = assay: Kinetics of enzymatic reduction of methoxynaphthaldehydes by horse ADH; format: biochemical; details: for Km / kcat: pH 7.0, 50 μM NADH, spectrophotometric, >90% EE isozyme; for v/v (EtOH): rate relative to ethanol oxidation at pH 10.0
From the text: Crystalline horse ADH was purchased from Boehringer-Mannheim (Indianapolis,Ind.). NAD^+ and NADH, both grade III, were obtained as preweighed samples from Sigma Chemical Co. (St. Louis, Mo.); isobutyramide was from Aldrich., ethanol (100%) was from U.S. Industrial Chemicals Co. (New York, N.Y.); Mes acid (2-(N-morpholino)ethanesulfonic acid) was recrystallized from water. All other reagents were of analytical grade. Deionized, glass-distilled water was used throughout.
(§2) Standard assays for ethanol oxidation activity (Dalziel, 1957, Acta Chem Scand 11:1706-23) were carried out on a Cary 219 spectrophotometer interfaced with an Apple IIe microcomputer, using software provided by Varian Associates. The reaction mixture contained 2.5 mM NAD^+ in 0.1M glycine-NaOH buffer. pH 10.0, and 33 mM or 0.2M ethanol for Class I and Class II ADH, respectively.
as §1, with “N.Y. […]” for “N.Y.”
(§3) Additionally the reaction rates for these isozymes were compared to those measured by the standard assay for ethanol oxidation (see part 7 above) at pH 10.0 the optimum for oxidation of ethanol by ADH. The rate of IA reduction for all Class I isozymes except the β1 β1 form is 1.5- to 4-fold faster than that of ethanol oxidation as measured by the conventional ethanol oxidation assay. […] Table III illustrates that IIA is an excellent substrate for Class II (.eta.) ADH, with a rate of IIA reduction at least 8-fold faster than that of ethanol oxidation.

γ1 γ1 ADH (Class I) = molecular target: T1, γ1 γ1 ADH (Class I) (Homo sapiens, UniProt P00326); assay: Kinetics of enzymatic reduction of methoxynaphthaldehydes by γ1γ1 ADH; format: biochemical; details: rate relative to ethanol oxidation at pH 10.0
T1 construct: gamma1 allele (ADH1C*1, Arg271 and Ile349 in mature count)

αγ1 ADH (Class I) = molecular target: T2, αγ1 ADH (Class I) (Homo sapiens, UniProt P00326+P07327); assay: Kinetics of enzymatic reduction of methoxynaphthaldehydes by αγ1 ADH; format: biochemical; details: rate relative to ethanol oxidation at pH 10.0
T2 construct: gamma1 allele (ADH1C*1, Arg271 and Ile349 in mature count)

Class II (π) ADH = Class II (π) ADH (Homo sapiens, UniProt P08319); assay: Kinetics of enzymatic reduction of methoxynaphthaldehydes by Class II ADH; format: biochemical; details: for v/v (EtOH): rate relative to ethanol oxidation at pH 10.0
β1 γ1 ADH (Class I) = molecular target: T3, β1 γ1 ADH (Class I) (Homo sapiens, UniProt P00325+P00326); assay: Kinetics of enzymatic reduction of methoxynaphthaldehydes by β1γ1 ADH; format: biochemical; details: rate relative to ethanol oxidation at pH 10.0
T3 construct: beta1 (ADH1B*1) and gamma1 (ADH1C*1) alleles

human ADH isozymes = assay: Kinetics of enzymatic reduction of methoxynaphthaldehydes by ADH isozymes (general); format: biochemical
Procedure: as §1
All reaction mixtures (3 ml total volume) were prepared directly in 1 cm pathlength, 4 ml fluorometric cuvettes by adding 150 μl of the 300 μM substrate solution (e.g substrate IA or IIA) 100 μl of the 1 mM NADH solution (prepared as in part 5 above) and 2.69 ml of assay buffer (0.1M phosphate, pH 7.6). […]
The linear increase of fluorescence was then recorded for 1-10 minutes, until 0.03-1 μM of substrate was consumed. […] The added product fluorescence intensity was then measured Fluorescence measurements were optimized for samples with low activity (<1 nM/minute). […] Rates measured in the presence of the 0.2 mM ADH inhibitors. […]
The rates of aldehyde reduction, determined as initial velocities (V) and expressed in units of nM/minute, were calculated according to: [formula] where the quantity in parentheses is the slope of the linear fluorescence increase calculated from the quantities Ft and FO, the fluorescence at time t and at the beginning of the reaction, respectively. […]

β1 β1 ADH (Class I) [2] = assay: Kinetics of enzymatic reduction of methoxynaphthaldehydes by β1β1 ADH; format: biochemical, human; details: pH 7.0, 50 μM NADH; spectrophotometric
β1 β1 ADH (Class I) [3] = assay: as above; format: biochemical, human; details: for Km / kcat: Table IV; for v/v (EtOH): rate relative to ethanol oxidation at pH 10.0
Procedure: as §2, §1
All reaction mixtures (3 ml total volume) were prepared directly in 1 cm pathlength, 4 ml fluorometric cuvettes by adding 150 μl of the 300 μM substrate solution (e.g substrate IA or IIA) 100 μl of the 1 mM NADH solution (prepared as in part 5 above) and 2.69 ml of assay buffer (0.1M phosphate, pH 7.6). After thermal equilibration (25° C.) for 5 minutes, 60 μl of isozyme sample (either serum or purified ADH isozymes) was added to the cuvette.
The linear increase of fluorescence was then recorded for 1-10 minutes, until 0.03-1 μM of substrate was consumed. Larger substrate consumption was not found to be desirable (described in subpart (c) below). After this period the instrument sensitivity setting was reduced 10-30 fold, the signal compensated once again by zero suppression (see part 6 above), and 60 μl of 200-400 μM product (e.g., product IB or IIB) was added to provide an internal standard. The added product fluorescence intensity was then measured Fluorescence measurements were optimized for samples with low activity (<1 nM/minute). For samples with higher activity, repeat measurements were made with the serum volume reduced from 60 μl to 10 μl. Rates measured in the presence of the 0.2 mM ADH inhibitors. 4-MeP or 4-PeP, were made by adding 50 μl of 12 mM inhibitor to the cuvette prior to the assay buffer, and the reaction was carried out as above.
The rates of aldehyde reduction, determined as initial velocities (V) and expressed in units of nM/minute, were calculated according to: [formula] where the quantity in parentheses is the slope of the linear fluorescence increase calculated from the quantities Ft and FO, the fluorescence at time t and at the beginning of the reaction, respectively. Cst is the concentration of the product used as a standard added to the cuvette after the initial rate had been measured and Fst is the fluorescence intensity of the added product
as §3

[4] = pH 7.0, 50 μM NADH, spectrophotometric

Sequence of Class II (π) ADH (P08319 whole entry): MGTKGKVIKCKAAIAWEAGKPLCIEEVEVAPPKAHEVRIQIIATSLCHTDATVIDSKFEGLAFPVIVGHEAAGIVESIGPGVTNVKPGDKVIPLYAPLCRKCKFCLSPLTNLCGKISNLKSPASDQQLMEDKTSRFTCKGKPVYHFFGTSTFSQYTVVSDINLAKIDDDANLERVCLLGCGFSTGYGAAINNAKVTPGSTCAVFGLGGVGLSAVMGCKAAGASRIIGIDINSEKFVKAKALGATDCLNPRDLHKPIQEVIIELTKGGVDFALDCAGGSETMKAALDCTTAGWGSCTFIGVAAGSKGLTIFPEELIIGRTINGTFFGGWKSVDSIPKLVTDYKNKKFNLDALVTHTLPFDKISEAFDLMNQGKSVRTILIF
T2 sequence (P07327 2-375): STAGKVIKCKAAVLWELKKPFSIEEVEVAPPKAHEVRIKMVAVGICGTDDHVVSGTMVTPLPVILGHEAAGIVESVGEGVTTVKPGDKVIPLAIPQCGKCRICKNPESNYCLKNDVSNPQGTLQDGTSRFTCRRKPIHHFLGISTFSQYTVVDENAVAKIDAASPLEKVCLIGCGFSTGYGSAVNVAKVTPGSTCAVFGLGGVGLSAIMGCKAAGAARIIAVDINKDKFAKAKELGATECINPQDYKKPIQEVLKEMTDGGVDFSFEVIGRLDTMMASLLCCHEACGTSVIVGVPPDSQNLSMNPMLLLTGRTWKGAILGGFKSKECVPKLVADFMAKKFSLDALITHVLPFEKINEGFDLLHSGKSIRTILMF
T2 sequence (P00326 2-375): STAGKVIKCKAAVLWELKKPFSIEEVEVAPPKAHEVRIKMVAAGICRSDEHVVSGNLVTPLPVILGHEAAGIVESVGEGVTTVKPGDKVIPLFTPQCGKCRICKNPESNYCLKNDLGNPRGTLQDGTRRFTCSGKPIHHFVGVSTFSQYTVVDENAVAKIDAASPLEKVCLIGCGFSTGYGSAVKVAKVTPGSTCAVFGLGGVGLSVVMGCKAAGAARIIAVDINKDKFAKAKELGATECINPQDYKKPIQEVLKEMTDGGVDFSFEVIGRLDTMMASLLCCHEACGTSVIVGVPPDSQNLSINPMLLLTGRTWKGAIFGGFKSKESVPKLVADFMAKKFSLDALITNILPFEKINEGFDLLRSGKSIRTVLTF
T3 sequence (P00325 whole entry): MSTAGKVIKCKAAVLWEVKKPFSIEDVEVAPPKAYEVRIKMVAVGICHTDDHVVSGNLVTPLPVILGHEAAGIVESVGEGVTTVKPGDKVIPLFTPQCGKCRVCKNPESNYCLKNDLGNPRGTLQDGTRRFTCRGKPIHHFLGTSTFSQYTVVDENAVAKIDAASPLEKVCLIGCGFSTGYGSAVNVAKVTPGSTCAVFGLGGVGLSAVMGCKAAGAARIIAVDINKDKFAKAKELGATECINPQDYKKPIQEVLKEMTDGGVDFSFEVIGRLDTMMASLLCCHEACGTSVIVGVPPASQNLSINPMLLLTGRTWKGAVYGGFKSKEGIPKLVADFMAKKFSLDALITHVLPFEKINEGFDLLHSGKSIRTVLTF
T3 sequence (P00326 whole entry): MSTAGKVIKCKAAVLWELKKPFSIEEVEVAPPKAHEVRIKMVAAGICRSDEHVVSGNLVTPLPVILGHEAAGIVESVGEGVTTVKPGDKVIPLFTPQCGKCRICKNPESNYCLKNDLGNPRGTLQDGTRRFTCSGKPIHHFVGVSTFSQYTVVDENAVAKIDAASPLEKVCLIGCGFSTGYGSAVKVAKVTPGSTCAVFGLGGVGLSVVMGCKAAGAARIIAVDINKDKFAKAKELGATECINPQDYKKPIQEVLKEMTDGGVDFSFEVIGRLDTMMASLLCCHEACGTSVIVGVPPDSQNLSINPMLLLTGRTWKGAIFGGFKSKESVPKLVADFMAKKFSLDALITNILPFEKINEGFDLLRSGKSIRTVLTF
T1 sequence (P00326 2-375): as the sequence (P00326 2-375) above

Row | total decrease of molar absorptivity (aldehyde/NADH system) [1] | Absorption εmax ([1]; Mes buffer (45 mM), pH 7.0) | Absorption λmax ([1]; Mes buffer (45 mM), pH 7.0) | Fluorescence .phi. (quantum yield) ([1]; Mes buffer (45 mM), pH 7.0) | Fluorescence λmax ([1]; Mes buffer (45 mM), pH 7.0) | Km (Horse ADH) | v/v (EtOH) (γ1 γ1 ADH (Class I)) | v/v (EtOH) (αγ1 ADH (Class I)) | kcat (Class II (π) ADH; [4]) | v/v (EtOH) (Class II (π) ADH) | v/v (EtOH) (β1 γ1 ADH (Class I)) | Km of most, in particular γ-containing Class I isozymes (human ADH isozymes) | Km (β1 β1 ADH (Class I) [2]) | Km (β1 β1 ADH (Class I) [3]) | Structure (SMILES) | kcat (Horse ADH) | v/v (EtOH) (Horse ADH) | kcat (β1 β1 ADH (Class I) [2]) | kcat (β1 β1 ADH (Class I) [3]) | v/v (EtOH) (β1 β1 ADH (Class I) [3]) | also measured
1 | 18000 M⁻¹ cm⁻¹ | 13,100 M^-1 cm^-1 | 332 nm | 0.003 | 420 nm | 33 µM | 1.54 | 2.71 | 0.833 s⁻¹ | 0.20 | 0.93 | close to or below 1 | 4 µM | 4 µM | COc1ccc(C=O)c2ccccc12 [IA, 4-methoxy-1-naphthaldehyde] | 0.433 s⁻¹ | 0.04 | 0.033 s⁻¹ | 0.033 s⁻¹ | 0.08 | rate of reduction of IA versus IIA by Class I ββ isozymes (β1 β1 ADH (Class I) [3]; words): much faster
2 | 12700 M⁻¹ cm⁻¹ | 14,400 M^-1 cm^-1 | 315 nm | 0.22 | 450 nm | 2.2 µM | 0.45 | 1.06 | 25 s⁻¹ | 8.0 | 0.53 | close to or below 1 | 5.4 µM | 5.4 µM | COc1ccc2cc(C=O)ccc2c1 [IIA, 6-methoxy-2-naphthaldehyde] | 35.83 s⁻¹ | 2.5 | 1.28 s⁻¹ | 1.28 s⁻¹ | 4.85 | Fluorescence .phi. (quantum yield) ([1]; in methanol): 0.03; Fluorescence λmax ([1]; in methanol): 435 nm; kcat for Class II relative to Class I isozymes (Class II (π) ADH): 10 fold; kcat (Class II (π) ADH; Class II): 25 s⁻¹; rate of reduction relative to ethanol oxidation (Class II (π) ADH; Class II ADH): at least 8 fold

From patent publication US5162203A, “Methods of measuring isozymes and isozyme classes of alcohol dehydrogenase” (President and Fellows of Harvard College, priority 1989, dated 1992)
